Tests used:
[1] = In vivo pharmacokinetic study, dog; details: for DNAUC / T 1/2: Dog; for clearance / Vd / bioavailability: dog, blood; for clearance / Vd: intravenous; for Vd: read-out: Vss; for bioavailability: oral
Experimental: (§1) In vivo pharmacokinetic studies were conducted in mouse, rat, dog, or cynomolgus monkey to determine clearance, oral exposure and bioavailability (% F). Solution doses of the compounds were administered intravenously through catheters or orally by gavage. Blood samples were collected at the following time points (n=2 or 3/route/species): 0.083 (IV only), 0.167 (IV only), 0.25, 0.5, 1, 2, 4, 6, 8, 12, and 24 h. Non-compartmental pharmacokinetic parameters were determined using Phoenix Winnonlin 6.1 (Pharsight, Mountain View, Calif.). Bioavailability of the oral formulation of each compound were calculated as the ratio of the oral dose normalized AUCinf to the intravenous dose normalized AUCinf. Results are expressed in Table 2.

[2] = In vivo pharmacokinetic study, rat; details: for DNAUC / T 1/2: Rat; for clearance / Vd / bioavailability: rat, blood; for clearance / Vd: intravenous; for Vd: read-out: Vss; for bioavailability: oral
Experimental: as §1

[3] = Hepatocyte incubations, metabolic stability; assay type: in vitro ADME; design: dose or concentration left out as unconfirmed; details: cryopreserved human hepatocytes, 0.25×10^6 cells, up to 120 min, 37 C
Experimental: Hepatocyte incubations were conducted using cryopreserved hepatocytes purchased from CellzDirect (Durham, N.C.). Cryopreserved hepatocytes were removed from liquid nitrogen and thawed according to XenoTech's guidelines listed in “XenoTech Protocol for Thawing Cryopreserved Hepatocytes” using Hepatocyte Isolation Kit K2000 (Dec. 13, 2004). Hepatocytes were diluted to 1 million cells in 1 mL of Williams E media containing 25 mM HEPES buffer and 2 mM Glutamax.
Hepatocyte incubations were carried out in 96-well plates on an Eppendorf shaker at 350 rpm at 37 C. Reaction mixtures consisted of 0.25×10^6 cells and […] test compound (to maintain a 0.05% final DMSO concentration) in a final volume of 0.5 mL. An initial time-point (t0) was collected and subsequent aliquots were collected at 15, 30, 60, 90, and 120 min. Reactions were terminated by transferring […] of the incubation mixture into a 96-well plate containing […] of an organic mixture [acetonitrile and methanol (80:20)] at 4° C. Precipitated protein was removed by centrifugation and the resultant supernatant was transferred to a new 96-well polypropylene plate for LC/MS/MS analysis. Drug-free matrix control and 2 QC standards (phenacetin and propranolol) were included in each experiment and treated in the same manner as test compound.
Metabolic stability expressed as the percentage of parent compound remaining was calculated from the peak area ratio of compound remaining after incubation (tx) compared to the time zero (t0) incubation.
The half-life (t1/2) was calculated using the following equation: […]
Where K is the slope of the ln % remaining vs. time regression. Half-life values were only reported when at least 15% loss of parent compound was observed.

[4] = In vivo pharmacokinetic study, monkey; design: species or system cynomolgus monkey; details: for clearance / Vd / bioavailability: cynomolgus monkey; for clearance / Vd: intravenous; for Vd: read-out: Vss; for bioavailability: oral
Experimental: as §1

[5] = In vivo pharmacokinetic study, mouse; details: for clearance / Vd / bioavailability: blood; for clearance / Vd: intravenous; for Vd: read-out: Vss; for bioavailability: oral
Experimental: as §1

[6] = test system: sub-genomic HCV NS3-NS5B replicon genotype 1a (Huh-7 cells); assay: Replicon luciferase cell based assay, genotype 1a; details: Hepatitis C virus; Huh-7 genotype 1a luciferase replicon, 48 hours; read-out: EC50 GT 1a
Experimental: (§2) 150 μL of a 1 mM stock solution in DMSO of each test compound was transferred into in the first column of a 96 well, V-bottom microplate, to give 200 times the top concentration of the required dilution series. Aliquots of 50 μL were added to each well of the remaining rows containing 100 μL of DMSO giving a 1:3 dilution series over ten points. Columns 11 and 12 contained DMSO only for the positive and negative control, respectively. 10 μL of each well were transferred into 90 μL of DMEM medium (Invitrogen #41965-039) supplemented with 5% v/v foetal calf serum, 1% v/v non-essential amino acids solution, 100 units/ml penicillin, 100 μg/ml streptomycin and 2 mM L-glutamine to give 20 times the top concentration of the required dilution series.
(§3) Suspensions were prepared from cultures of Huh-7 cells stably transfected with sub-genomic HCV NS3-NS5B replicons of either genotype 1b (the ET subline described by Pietschmann, T., Lohmann, V., Kaul, A., Krieger, N., Rinck, G., Rutter, G., Strand, D. & Bartenschlager, R., Journal of Virology, 2002, 76, 4008-4021), genotype 1a (subline 1.19 constructed in-house from H77 SG-Neo containing adaptive mutations P1496L and S2204I as described by Blight, K. J., McKeating, J. A., Marcotrigiano, J., and Rice, C. M. Journal of Virology, 2003, 77, 3180-3190), genotype 1b C316N (constructed in-house by site directed mutagenesis of the NS5B gene of the ET subline), or genotype 1a C316Y (constructed in-house by site directed mutagenesis of the NS5B gene of H77 SG-Neo containing adaptive mutations P1496L and S2204I as described by Blight, K. J., McKeating, J. A., Marcotrigiano, J., and Rice, C. M. Journal of Virology, 2003, 77, 3180-3190) linked to a firefly luciferase reporter gene. Monolayers nearing confluency were stripped from growth flasks with versene-trypsin solution and the cells re-suspended in assay medium comprising DMEM. 95 μL of suspension containing either 15,000 cells (genotype 1b luciferase replicon) or 20,000 cells (genotype 1a luciferase replicon) were added to all wells of a 96 well plate (Perkin Elmer, #6005686), except medium controls in column 12 of the assay plate. The cell suspension was dosed with 5 μL of compound solution and the plate was incubated for 48 hours at 37° C. in a 5% CO2 atmosphere.
(§4) For toxicity the cells in one plate were treated with Cell Titer Glo (Promega, #G7573). A solution of Cell Titer Glo was prepared according to the manufacturer's instructions, and 100 μL added to each well. The plate was then read for luminescence on an Envision. For potency a solution of Steady Glo (Promega, #E2550) was prepared according to the manufacturer's instructions and 100 μL added to each well. After a twenty minute incubation the plate was then read for luminescence on an Envision.
(§5) Potency: The luminescence values from all compound-free wells containing cells were averaged to obtain a positive control value. The mean luminescence value from the compound-free wells that had received no cells was used to provide the negative (background) control value. The readings from the wells at each compound concentration were taken and after the subtraction of the mean background from all values, were expressed as a percentage of the positive control signal. The quantifiable and specific reduction of luciferase signal in the presence of a drug is a direct measure of replicon inhibition. BioAssay Enterprise (CamebridgeSoft) with the XC50 module for curve fitting was used to plot the curve of percentage inhibition against compound concentration and derive the 50% inhibitory concentration (EC50) for the compound. EC50 is the effective concentration, that is, the concentration of compound where 50% maximal effect is observed. The EC50 values of two identical plates were averaged. The results are presented in Table 1 as EC50 for genotypes (GT) 1a, 1b, 1b 316N and 1a 316Y.

[7] = test system: sub-genomic HCV NS3-NS5B replicon genotype 1b (Huh-7 cells); assay: Replicon luciferase cell based assay, genotype 1b; details: Hepatitis C virus; Huh-7 genotype 1b luciferase replicon, 48 hours; read-out: EC50 GT1b
Experimental: as §2, §3, §4, §5

[8] = test system: sub-genomic HCV NS3-NS5B replicon genotype 1b C316N (Huh-7 cells); assay: Replicon luciferase cell based assay, genotype 1b C316N; details: Hepatitis C virus, Huh-7, 48 h, read-out: EC50 1b 316N
Experimental: as §2, §3, §4, §5

[9] = test system: sub-genomic HCV NS3-NS5B replicon genotype 1a C316Y (Huh-7 cells); assay: Replicon luciferase cell based assay, genotype 1a C316Y; details: Hepatitis C virus, Huh-7, 48 h, read-out: EC50 1a 316Y
Experimental: as §2, §3, §4, §5

For `CNC(=O)c1c(-c2ccc(F)cc2)oc2cc(N(Cc3ccc(B(O)O)c(F)c3)S(C)(=O)=O)c(C3CC3)cc12` [D], the DNAUC [1] was 1147 ng·h/mL/mg/kg, the “T 1/2” value [1] was 4.5 H and the clearance [1] was 10.8 mL/min/kg. For the same compound, the Vd [1] was 3.6 L/kg, the bioavailability [1] was 70% and the DNAUC [2] was 403 ng·h/mL/mg/kg. For the same compound, the “T 1/2” value [2] was 2.2 H, the clearance [2] was 18.6 mL/min/kg and the Vd [2] was 0.8 L/kg. It also gave a bioavailability [2] of 45%, a half-life [3] of 1.03 h and a DNAUC ([4]; Monkey (plasma)) of 101 ng·h/mL/mg/kg. For the same compound, the “T 1/2” value ([4]; Monkey (plasma)) was 1.1 H, the clearance ([4]; Monkey (plasma)) was 48.4 mL/min/kg and the Vd ([4]; Monkey (plasma)) was 1.8 L/kg. The bioavailability ([4]; Monkey (plasma)) was 28%, the DNAUC ([5]; Mouse (avg)) was 4108 ng·h/mL/mg/kg and the “T 1/2” value ([5]; Mouse (avg)) was 5 H. The clearance ([5]; Mouse (avg)) was 1.4 mL/min/kg, the Vd ([5]; Mouse (avg)) was 0.6 L/kg and the bioavailability ([5]; Mouse (avg)) was 37%.

With `CNC(=O)c1c(-c2ccc(F)cc2)oc2cc(N(c3ccc(B(O)O)c(Cl)c3)S(C)(=O)=O)c(C3CC3)cc12` [Example 1, (2-Chloro-4-(N-(5-cyclopropyl-2-(4-fluorophenyl)-3-(methylcarbamoyl)benzofuran-6-yl)methylsulfonamido)phenyl)boronic acid] the DNAUC [1] was 6438 ng·h/mL/mg/kg, the “T 1/2” value [1] was 8.7 H and the clearance [1] was 2.3 mL/min/kg. For the same compound, the Vd [1] was 1.6 L/kg, the bioavailability [1] was 83% and the EC50 [6] was 0.001 to 0.01 µM. The EC50 [7] was 0.001 to 0.01 µM, the EC50 [8] was 0.001 to 0.01 µM and the DNAUC [2] was 567 ng·h/mL/mg/kg. For the same compound, the “T 1/2” value [2] was 2.9 H, the clearance [2] was 7.5 mL/min/kg and the Vd [2] was 1.3 L/kg. The bioavailability [2] was 23%, the EC50 [9] was 0.001 to 0.01 µM and the half-life [3] was over 6 h. For the same compound, the DNAUC ([4]; Monkey) was 2953 ng·h/mL/mg/kg, the “T 1/2” value ([4]; Monkey) was 3.7 H and the clearance ([4]; blood) was 2.2 mL/min/kg. For the same compound, the Vd ([4]; blood) was 0.5 L/kg, the bioavailability ([4]; blood) was 51% and the DNAUC ([5]; Mouse) was 6688 ng·h/mL/mg/kg. The “T 1/2” value ([5]; Mouse) was 5.5 H, the clearance ([5]; mouse) was 0.9 mL/min/kg and the Vd ([5]; mouse) was 0.4 L/kg. For the same compound, the bioavailability ([5]; mouse) was 37%.

For `CNC(=O)c1c(-c2ccc(F)cc2)oc2cc(N(c3cc(Cl)c4c(c3)COB4O)S(C)(=O)=O)c(C3CC3)cc12` [Example 15, 6-(N-(7-chloro-1-hydroxy-1,3-dihydrobenzo[c][1,2]oxaborol-5-yl)methylsulfonamido)-5-cyclopropyl-2-(4-fluorophenyl)-N-methylbenzofuran-3-carboxamide], the DNAUC [1] was 11480 ng·h/mL/mg/kg, the “T 1/2” value [1] was 6.9 H and the clearance [1] was 1.2 mL/min/kg. It also gave a Vd [1] of 0.6 L/kg, a bioavailability [1] of 82% and an EC50 [6] of 0.001 to 0.01 µM. It also gave an EC50 [7] of 0.001 to 0.01 µM, an EC50 [8] of 0.001 to 0.01 µM and a DNAUC [2] of 1089 ng·h/mL/mg/kg. For the same compound, the “T 1/2” value [2] was 2.8 H, the clearance [2] was 6.9 mL/min/kg and the Vd [2] was 0.9 L/kg. For the same compound, the bioavailability [2] was 43%, the EC50 [9] was 0.011 to 0.2 µM and the half-life [3] was over 6 h. The “T 1/2” value ([4]; Monkey) was 3.7 H, the clearance ([4]; blood) was 5.7 mL/min/kg and the Vd ([4]; blood) was 1.2 L/kg. For the same compound, the DNAUC ([5]; Mouse) was 14603 ng·h/mL/mg/kg, the “T 1/2” value ([5]; Mouse) was 8.4 H and the clearance ([5]; mouse) was 0.7 mL/min/kg. The Vd ([5]; mouse) was 0.4 L/kg and the bioavailability ([5]; mouse) was 39%.

For `CNC(=O)c1c(-c2ccc(F)cc2)oc2cc(N(Cc3cc(F)c4c(c3)COB4O)S(C)(=O)=O)c(C3CC3)cc12` [A], the DNAUC [1] was 1074 ng·h/mL/mg/kg, the “T 1/2” value [1] was 5.1 H and the clearance [1] was 12.4 mL/min/kg. For the same compound, the Vd [1] was 3.5 L/kg, the bioavailability [1] was 71% and the DNAUC [2] was 541 ng·h/mL/mg/kg. The “T 1/2” value [2] was 1.7 H, the clearance [2] was 14.5 mL/min/kg and the Vd [2] was 1 L/kg. For the same compound, the bioavailability [2] was 47%, the half-life [3] was over 6 h and the DNAUC ([4]; Monkey) was 33 ng·h/mL/mg/kg. For the same compound, the “T 1/2” value ([4]; Monkey) was 2.1 H, the clearance ([4]; blood) was 70.1 mL/min/kg and the Vd ([4]; blood) was 6.3 L/kg. The bioavailability ([4]; blood) was 13%, the DNAUC ([5]; Mouse (avg)) was 9344 ng·h/mL/mg/kg and the “T 1/2” value ([5]; Mouse (avg)) was 4.3 H. The clearance ([5]; Mouse (avg)) was 0.9 mL/min/kg, the Vd ([5]; Mouse (avg)) was 0.3 L/kg and the bioavailability ([5]; Mouse (avg)) was 51%.

From US9682999B2, “Benzofuran compounds for the treatment of hepatitis C virus infections” (Glaxo Group Limited, priority 2011, dated 2017)
